This note sets out measurements from patent publication US7015306B2 (BioSynthema, Inc., priority 1999, dated 2006).

The nature of data set [1]: In vitro urine stability assay (HPLC) of In-111 labeled peptide. As to conditions: rat urine, 37EC, 4 hours. It is filed as in vitro ADME. The method, then: (§1) All reagents were purchased from Sigma unless otherwise noted. The peptide and ^111InCl3 in 0.05 N HCl were incubated in a sodium acetate/ascorbic acid buffer for 30 minutes at room temperature. The reaction was diluted with 5% ethanol/95% PBS before using in subsequent in vitro assays.
(§2) Human serum was purchased from Sigma (H 1388). The labeled peptide was incubated in either human serum or rat urine at 37EC for the specified amount of time. An aliquot was filtered through a 0.45 μm syringe filter prior to HPLC injection.

Data set [2] is described as follows: In vitro serum stability assay (HPLC) of In-111 labeled peptide. The class given is in vitro ADME, human. As to conditions: human serum, 37EC, 4 hours. The method, then: as §1, §2
The next data set concerns the target neurotensin receptors (Homo sapiens, UniProt P30989). The data set is described as follows: Competitive binding assay on frozen tissue sections of receptor-positive human tumors vs radioiodinated native neurotensin. From the text:
Frozen tissue sections from receptor-positive human tumors were used in a competitive binding assay.

Structures are written as SMILES.

Chain of neurotensin receptors (P30989 whole entry): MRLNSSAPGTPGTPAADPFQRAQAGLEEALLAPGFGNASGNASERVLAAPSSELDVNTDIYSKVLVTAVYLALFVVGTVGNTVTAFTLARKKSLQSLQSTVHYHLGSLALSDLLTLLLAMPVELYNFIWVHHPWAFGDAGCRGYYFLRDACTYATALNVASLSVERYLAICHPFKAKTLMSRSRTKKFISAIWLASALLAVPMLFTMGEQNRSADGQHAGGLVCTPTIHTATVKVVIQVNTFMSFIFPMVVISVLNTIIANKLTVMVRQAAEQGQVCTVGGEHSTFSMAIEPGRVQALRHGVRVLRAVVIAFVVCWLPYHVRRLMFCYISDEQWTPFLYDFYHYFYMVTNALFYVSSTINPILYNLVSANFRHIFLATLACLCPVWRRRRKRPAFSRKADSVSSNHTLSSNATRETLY

Take `CC[C@H](C)[C@H](NC(=O)[C@H](Cc1ccc(O)cc1)NC(=O)[C@@H]1CCCN1C(=O)[C@H](CCCNC(=N)N)NC(=O)C(NC(=O)[C@@H]1CCCN1C(=O)[C@@H](CCCCN)NC(=O)CN(CCN(CCN(CC(=O)O)CC(=O)O)CC(=O)O)CC(=O)O)C1CCN(C(=N)N)CC1)C(=O)N[C@@H](CC(C)C)C(=O)O` (single isomer, unassigned) [Compound II, DTPA-DLys-Pro-Gly(PipAm)-Arg-Pro-Tyr-Ile-Leu-OH]: in data set [1], the “% of compound present at 4 hours in urine” value worked out at 16.6% and the “% of peptide at 4 hours after incubation at 37EC, Urine” value (shortened to “% of peptide at 4 hours … Urine”) is 16.6%. In addition, in data set [2], the “% of compound present at 4 hours in serum” value is listed as 19.5% and the “% of peptide at 4 hours after incubation at 37EC, Serum” value (from here on “% of peptide at 4 hours … Serum”) is listed as 19.5%. Besides, the Kd (commonly the equilibrium constant for the complex coming apart) at neurotensin receptors (Table 1) was 2.7 nM.
In the case of `CC[C@H](C)[C@H](NC(=O)[C@H](Cc1ccc(O)cc1)NC(=O)[C@@H]1CCCN1C(=O)[C@H](CCCNC(=N)N)NC(=O)C(CCc1ccnc(N)n1)NC(=O)[C@@H]1CCCN1C(=O)[C@@H](CCCCN)NC(=O)CN(CCN(CCN(CC(=O)O)CC(=O)O)CC(=O)O)CC(=O)O)C(=O)N[C@@H](CC(C)C)C(=O)O` (single isomer, unassigned) [Compound III, DTPA-DLys-Pro-Aba(Apy)-Arg-Pro-Tyr-Ile-Leu-OH], in data set [1], the “% of compound present at 4 hours in urine” value is recorded as 6.0% and the “% of peptide at 4 hours … Urine” value is 6.0%. In data set [2], the “% of compound present at 4 hours in serum” value was found to be 4.3% and the “% of peptide at 4 hours … Serum” value came to 4.3%. Besides, the dissociation constant (Kd) at neurotensin receptors (Table 1) came to 68 nM.
Turning to `CC(C)C[C@H](NC(=O)[C@@H](NC(=O)[C@H](Cc1ccc(O)cc1)NC(=O)[C@@H]1CCCN1C(=O)[C@H](CCCNC(=N)N)NC(=O)C(NC(=O)[C@@H]1CCCN1C(=O)[C@@H](CCCCN)NC(=O)CN(CCN(CCN(CC(=O)O)CC(=O)O)CC(=O)O)CC(=O)O)C1CCN(C(=N)N)CC1)C(C)(C)C)C(=O)O` (single isomer, unassigned) [Compound X, DTPA-DLys-Pro-Gly(PipAm)-Arg-Pro-Tyr-tBuGly-Leu-OH], the “% of peptide at 4 hours … Urine” value in data set [1] is recorded as 63.0%. Moreover, in data set [2], the “% of peptide at 4 hours … Serum” value is recorded as 87.5%. In addition, at neurotensin receptors (C-terminus modified derivatives), the IC50 (commonly the concentration at which inhibition is half-maximal) was determined as 3.5 nM. This compound displayed a Kd at neurotensin receptors (Table 3) of 3.5 nM.
On to `CC[C@H](C)[C@H](NC(=O)[C@H](Cc1ccc(O)cc1)NC(=O)[C@@H]1CCCN1C(=O)C(Cc1ccc(NC(=N)N)cc1)NC(=O)[C@H](CCCNC(=N)N)NC(=O)[C@@H]1CCCN1C(=O)[C@@H](CCCCN)NC(=O)CN(CCN(CCN(CC(=O)O)CC(=O)O)CC(=O)O)CC(=O)O)C(=O)N[C@@H](CC(C)C)C(=O)O` (single isomer, unassigned) [DTPA-DLys-Pro-Arg-(4-Gu)Phe-Pro-Tyr-Ile-Leu-OH], for which the “% of peptide at 4 hours … Urine” value in data set [1] amounted to 0%. In addition, the “% of peptide at 4 hours … Serum” value in data set [2] was 16.3%. For the same compound, the Kd at neurotensin receptors (Table 3) is 83 nM.
Consider `CC[C@H](C)[C@H](NC(=O)[C@H](Cc1ccc(O)cc1)NC(=O)[C@@H]1CCCN1C(=O)C(CCc1ccnc(N)n1)NC(=O)[C@H](CCCNC(=N)N)NC(=O)[C@@H]1CCCN1C(=O)[C@@H](CCCCN)NC(=O)CN(CCN(CCN(CC(=O)O)CC(=O)O)CC(=O)O)CC(=O)O)C(=O)N[C@@H](CC(C)C)C(=O)O` (single isomer, unassigned) [DTPA-DLys-Pro-Arg-Aba(Apy)-Pro-Tyr-Ile-Leu-OH], for which the “% of peptide at 4 hours … Urine” value in data set [1] was found to be 4.7%. Moreover, the “% of peptide at 4 hours … Serum” value in data set [2] came out at 15.7%. For the same compound, the Kd at neurotensin receptors (Table 3) was found to be 1200 nM.
Take `CC[C@H](C)[C@H](NC(=O)[C@H](Cc1ccc(O)cc1)NC(=O)[C@@H]1CCCN1C(=O)[C@H](CCCNC(=N)N)NC(=O)C(Cc1ccc(NC(=N)N)cc1)NC(=O)[C@@H]1CCCN1C(=O)[C@@H](CCCCN)NC(=O)CN(CCN(CCN(CC(=O)O)CC(=O)O)CC(=O)O)CC(=O)O)C(=O)N[C@@H](CC(C)C)C(=O)O` (stereo partly drawn) [Compound I, DTPA-DLys-Pro-(4-Gu)Phe-Arg-Pro-Tyr-Ile-Leu-OH]: in data set [1], the “% of compound present at 4 hours in urine” value is given as 1.5% and the “% of peptide at 4 hours … Urine” value is recorded as 1.5%. In data set [2], the “% of compound present at 4 hours in serum” value was determined as 14.1% and the “% of peptide at 4 hours … Serum” value was 14.1%. For the same compound, on neurotensin receptors (Table 1), the affinity, expressed as Kd, was 8.6 nM.
